Among the targets are D(3) dopamine receptor (Homo sapiens, UniProt P35462); Mu-type opioid receptor (Homo sapiens, UniProt P35372); D(1A) dopamine receptor (Homo sapiens, UniProt P21728); Histamine H3 receptor (Homo sapiens, UniProt Q9Y5N1).
The target in experiment [1] is T1, Thromboxane A2 receptor (Homo sapiens, UniProt P21731).
T1 sequence (P21731 whole entry): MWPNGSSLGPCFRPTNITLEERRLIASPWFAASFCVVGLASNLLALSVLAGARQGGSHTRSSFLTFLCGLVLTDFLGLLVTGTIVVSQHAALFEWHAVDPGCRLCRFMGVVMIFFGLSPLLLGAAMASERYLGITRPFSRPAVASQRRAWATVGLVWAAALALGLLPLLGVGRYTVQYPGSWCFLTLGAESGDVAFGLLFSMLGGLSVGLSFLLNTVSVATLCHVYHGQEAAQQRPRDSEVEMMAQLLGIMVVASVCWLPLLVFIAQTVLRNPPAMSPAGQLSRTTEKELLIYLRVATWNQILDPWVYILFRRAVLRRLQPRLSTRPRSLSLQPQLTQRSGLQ
In kind it is functional, cell-based.

Experiment [2] deals with Sodium-dependent dopamine transporter (Homo sapiens, UniProt Q01959).
Sodium-dependent dopamine transporter, sequence (Q01959 whole entry): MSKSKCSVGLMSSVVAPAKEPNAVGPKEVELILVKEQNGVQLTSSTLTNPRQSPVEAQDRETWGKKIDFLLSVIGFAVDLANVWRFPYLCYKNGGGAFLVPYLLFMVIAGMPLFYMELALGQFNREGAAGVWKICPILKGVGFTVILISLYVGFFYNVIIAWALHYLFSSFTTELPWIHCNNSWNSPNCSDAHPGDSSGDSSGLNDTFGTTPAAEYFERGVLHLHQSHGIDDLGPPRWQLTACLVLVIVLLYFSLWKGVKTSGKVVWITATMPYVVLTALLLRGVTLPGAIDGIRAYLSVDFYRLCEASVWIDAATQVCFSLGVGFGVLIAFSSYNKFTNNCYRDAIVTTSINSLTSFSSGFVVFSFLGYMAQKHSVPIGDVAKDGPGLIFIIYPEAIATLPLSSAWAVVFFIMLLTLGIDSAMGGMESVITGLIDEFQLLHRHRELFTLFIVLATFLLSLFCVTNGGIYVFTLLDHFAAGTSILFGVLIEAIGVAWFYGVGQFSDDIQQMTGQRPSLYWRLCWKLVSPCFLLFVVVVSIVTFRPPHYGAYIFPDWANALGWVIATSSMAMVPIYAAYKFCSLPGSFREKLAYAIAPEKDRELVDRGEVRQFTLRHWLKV
The target in experiment [3] is T2, Prostaglandin G/H synthase 1 (Homo sapiens, UniProt P23219). In kind it is functional.
T2 sequence (P23219 whole entry): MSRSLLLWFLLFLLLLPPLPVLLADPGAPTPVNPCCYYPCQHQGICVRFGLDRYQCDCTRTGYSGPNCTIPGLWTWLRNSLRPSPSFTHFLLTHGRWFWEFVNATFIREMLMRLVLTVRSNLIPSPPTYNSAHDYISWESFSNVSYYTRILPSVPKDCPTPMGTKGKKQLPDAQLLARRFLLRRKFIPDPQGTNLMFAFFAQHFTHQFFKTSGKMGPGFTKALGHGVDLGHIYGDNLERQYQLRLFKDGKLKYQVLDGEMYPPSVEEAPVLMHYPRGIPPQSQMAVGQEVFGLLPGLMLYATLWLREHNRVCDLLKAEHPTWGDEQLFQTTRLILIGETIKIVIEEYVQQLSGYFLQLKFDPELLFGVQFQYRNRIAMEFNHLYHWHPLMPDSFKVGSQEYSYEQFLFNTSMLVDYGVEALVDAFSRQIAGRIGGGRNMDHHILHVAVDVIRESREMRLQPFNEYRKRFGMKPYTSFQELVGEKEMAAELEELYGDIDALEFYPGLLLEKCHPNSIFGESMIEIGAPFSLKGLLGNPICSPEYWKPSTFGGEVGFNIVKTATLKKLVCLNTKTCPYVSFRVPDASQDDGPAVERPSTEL
Experiment [4] has as its target 3',5'-cyclic-AMP phosphodiesterase 4A (Homo sapiens, UniProt P27815). In kind it is functional.
Another experiment has as its target Prothrombin (Homo sapiens, UniProt P00734). In kind it is functional.
For experiment [5], the target named is T2, Prostaglandin G/H synthase 1. In kind it is functional. The source holds these as a separate data set.
For experiment [6], the target named is T1, Thromboxane A2 receptor. In kind it is functional, cell-based. The source holds these as a separate data set.
For experiment [7], the target named is cGMP-inhibited 3',5'-cyclic phosphodiesterase 3A (Homo sapiens, UniProt Q14432). In kind it is functional.
cGMP-inhibited 3',5'-cyclic phosphodiesterase 3A, sequence (Q14432 whole entry): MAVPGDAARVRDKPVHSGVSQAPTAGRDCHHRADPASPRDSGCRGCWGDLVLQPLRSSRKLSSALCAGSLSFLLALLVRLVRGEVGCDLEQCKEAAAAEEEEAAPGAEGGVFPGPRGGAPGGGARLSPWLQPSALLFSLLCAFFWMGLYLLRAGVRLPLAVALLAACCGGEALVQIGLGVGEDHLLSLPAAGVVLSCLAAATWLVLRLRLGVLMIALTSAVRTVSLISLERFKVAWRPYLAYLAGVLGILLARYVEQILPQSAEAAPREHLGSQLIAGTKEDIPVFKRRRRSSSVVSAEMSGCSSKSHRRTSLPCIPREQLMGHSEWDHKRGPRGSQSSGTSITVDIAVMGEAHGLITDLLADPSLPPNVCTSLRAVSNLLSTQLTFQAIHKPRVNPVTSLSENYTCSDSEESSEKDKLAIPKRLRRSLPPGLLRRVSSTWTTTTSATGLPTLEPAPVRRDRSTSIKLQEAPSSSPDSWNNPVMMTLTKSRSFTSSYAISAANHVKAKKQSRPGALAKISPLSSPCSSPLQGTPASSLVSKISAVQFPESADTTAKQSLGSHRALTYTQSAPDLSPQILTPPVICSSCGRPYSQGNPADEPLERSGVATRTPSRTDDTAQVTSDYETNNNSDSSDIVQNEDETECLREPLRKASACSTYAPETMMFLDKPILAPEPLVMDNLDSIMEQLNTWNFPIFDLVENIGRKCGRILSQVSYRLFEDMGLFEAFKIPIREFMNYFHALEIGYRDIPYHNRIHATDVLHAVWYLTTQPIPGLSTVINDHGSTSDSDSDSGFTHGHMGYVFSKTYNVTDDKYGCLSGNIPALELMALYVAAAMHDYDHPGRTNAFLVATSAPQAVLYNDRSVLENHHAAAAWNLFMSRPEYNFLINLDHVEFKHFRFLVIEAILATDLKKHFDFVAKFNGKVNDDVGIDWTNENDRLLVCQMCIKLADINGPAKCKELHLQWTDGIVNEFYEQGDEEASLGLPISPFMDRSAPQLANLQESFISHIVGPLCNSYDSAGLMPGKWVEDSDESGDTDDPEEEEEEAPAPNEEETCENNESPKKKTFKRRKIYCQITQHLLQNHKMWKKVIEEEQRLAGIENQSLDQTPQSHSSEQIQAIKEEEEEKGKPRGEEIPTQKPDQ
Experiment [8] deals with 5-hydroxytryptamine receptor 2B (Homo sapiens, UniProt P41595). In kind it is functional, cell-based.
5-hydroxytryptamine receptor 2B, sequence (P41595 whole entry): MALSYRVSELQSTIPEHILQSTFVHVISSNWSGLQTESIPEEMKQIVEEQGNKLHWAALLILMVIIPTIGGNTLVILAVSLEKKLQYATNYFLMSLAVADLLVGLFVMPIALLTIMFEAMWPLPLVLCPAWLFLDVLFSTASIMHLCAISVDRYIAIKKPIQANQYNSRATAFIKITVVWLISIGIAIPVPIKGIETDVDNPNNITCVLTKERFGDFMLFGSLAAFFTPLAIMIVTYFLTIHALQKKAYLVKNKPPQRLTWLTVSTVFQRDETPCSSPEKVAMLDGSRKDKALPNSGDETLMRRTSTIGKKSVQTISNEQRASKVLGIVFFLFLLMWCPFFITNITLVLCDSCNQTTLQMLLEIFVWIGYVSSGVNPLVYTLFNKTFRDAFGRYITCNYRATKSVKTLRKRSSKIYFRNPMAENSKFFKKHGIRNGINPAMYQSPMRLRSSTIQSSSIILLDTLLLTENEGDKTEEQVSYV
Experiment [9] has as its target T3, Alpha-2A adrenergic receptor (Homo sapiens, UniProt P08913).
T3 sequence (P08913 whole entry): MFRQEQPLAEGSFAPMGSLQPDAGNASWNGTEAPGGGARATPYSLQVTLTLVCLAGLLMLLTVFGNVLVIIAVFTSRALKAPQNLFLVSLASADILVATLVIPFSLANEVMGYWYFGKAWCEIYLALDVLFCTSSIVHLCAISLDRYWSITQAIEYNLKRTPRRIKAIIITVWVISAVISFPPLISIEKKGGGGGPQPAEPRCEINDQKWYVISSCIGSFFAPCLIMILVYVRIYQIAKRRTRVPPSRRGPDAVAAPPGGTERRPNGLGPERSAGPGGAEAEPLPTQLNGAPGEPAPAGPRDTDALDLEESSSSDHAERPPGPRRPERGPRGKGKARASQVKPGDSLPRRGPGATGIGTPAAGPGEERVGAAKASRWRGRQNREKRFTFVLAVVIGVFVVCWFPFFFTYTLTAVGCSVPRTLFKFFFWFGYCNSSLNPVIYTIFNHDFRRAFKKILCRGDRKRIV

Experiment [10] concerns the target T4, 5-hydroxytryptamine receptor 1A (Homo sapiens, UniProt P08908).
T4 sequence (P08908 whole entry): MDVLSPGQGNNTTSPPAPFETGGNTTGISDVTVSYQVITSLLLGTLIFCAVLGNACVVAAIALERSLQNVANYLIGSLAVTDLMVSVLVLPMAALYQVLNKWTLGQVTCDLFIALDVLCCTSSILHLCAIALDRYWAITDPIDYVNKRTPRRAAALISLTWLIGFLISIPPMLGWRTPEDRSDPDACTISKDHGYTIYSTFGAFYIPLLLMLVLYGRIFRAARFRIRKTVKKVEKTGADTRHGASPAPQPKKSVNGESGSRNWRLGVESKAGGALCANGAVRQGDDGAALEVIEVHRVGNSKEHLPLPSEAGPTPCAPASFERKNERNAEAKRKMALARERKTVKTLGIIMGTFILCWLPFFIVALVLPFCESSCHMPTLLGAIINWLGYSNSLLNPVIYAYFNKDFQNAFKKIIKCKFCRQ

The target of experiment [11] is Sodium-dependent noradrenaline transporter (Homo sapiens, UniProt P23975).
A further experiment addresses Acetylcholinesterase (Homo sapiens, UniProt P22303). In kind it is functional.
Experiment [12] concerns the target T5, Muscarinic acetylcholine receptor M2 (Homo sapiens, UniProt P08172).
T5 sequence (P08172 whole entry): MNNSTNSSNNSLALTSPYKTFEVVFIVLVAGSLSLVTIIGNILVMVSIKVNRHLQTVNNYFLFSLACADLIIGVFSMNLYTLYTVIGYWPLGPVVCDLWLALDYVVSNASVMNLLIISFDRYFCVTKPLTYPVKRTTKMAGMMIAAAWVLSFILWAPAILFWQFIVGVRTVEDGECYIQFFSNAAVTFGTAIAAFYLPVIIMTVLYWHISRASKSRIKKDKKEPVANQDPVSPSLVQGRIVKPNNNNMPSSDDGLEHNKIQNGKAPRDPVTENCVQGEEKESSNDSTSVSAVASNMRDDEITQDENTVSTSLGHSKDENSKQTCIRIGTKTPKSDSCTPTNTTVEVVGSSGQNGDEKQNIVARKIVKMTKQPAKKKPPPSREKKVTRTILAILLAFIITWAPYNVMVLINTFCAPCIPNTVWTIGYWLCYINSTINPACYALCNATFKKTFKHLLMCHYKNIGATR

In experiment [13] the target is Voltage-gated inwardly rectifying potassium channel KCNH2 (Homo sapiens, UniProt Q12809). In kind it is functional. Conditions: read-out: AC50.

As a reminder, the AC50 is the midpoint of the concentration-response curve, whichever way the signal moves.

*1 amine or outer side, *2 acyl side, *3 side chain or, on linkers, in order; H or OH if unused. Where a SMILES comes first, the peptide text is derived from it. Bridges are numbered along the chain shown (N, C = ends). [ ]: non-standard residue; d: D form. The star is where a group is joined. hTyr(3S-OH,4S-OH,3'-OSO3H) = N[C@H](C(=O)O)[C@H](O)[C@@H](O)c1ccc(O)c(OS(=O)(=O)O)c1; Orn(4R-OH,5R-OH) = O=C([C@H](C[C@@H](O)[C@@H](O)N[*:3])N[*:1])[*:2]; Pro(3S-OH,4S-Me) = C[C@H]1CN[C@H](C(=O)O)[C@H]1O; X1 = CCCCCOc1ccc(-c2cc(-c3ccc(C(=O)*)cc3)no2)cc1; Gln(3R-OH) = NC(=O)C[C@@H](O)[C@H](N)C(=O)O; Hyp = O=C(O)[C@@H]1C[C@@H](O)CN1
Also: assay procedure not described here.

Histamine H3 receptor, sequence (Q9Y5N1 whole entry): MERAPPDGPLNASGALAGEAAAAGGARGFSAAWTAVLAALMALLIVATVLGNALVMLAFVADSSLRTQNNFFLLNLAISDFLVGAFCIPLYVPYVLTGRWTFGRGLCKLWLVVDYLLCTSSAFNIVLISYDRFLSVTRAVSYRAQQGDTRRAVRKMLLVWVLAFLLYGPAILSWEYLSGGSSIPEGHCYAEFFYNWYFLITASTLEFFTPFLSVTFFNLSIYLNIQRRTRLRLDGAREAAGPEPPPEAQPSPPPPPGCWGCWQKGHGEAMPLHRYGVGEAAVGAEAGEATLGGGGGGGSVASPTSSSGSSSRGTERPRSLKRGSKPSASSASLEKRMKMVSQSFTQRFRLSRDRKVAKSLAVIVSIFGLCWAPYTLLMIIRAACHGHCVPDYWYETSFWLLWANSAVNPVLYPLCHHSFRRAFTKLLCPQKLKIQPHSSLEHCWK
Mu-type opioid receptor, sequence (P35372 whole entry): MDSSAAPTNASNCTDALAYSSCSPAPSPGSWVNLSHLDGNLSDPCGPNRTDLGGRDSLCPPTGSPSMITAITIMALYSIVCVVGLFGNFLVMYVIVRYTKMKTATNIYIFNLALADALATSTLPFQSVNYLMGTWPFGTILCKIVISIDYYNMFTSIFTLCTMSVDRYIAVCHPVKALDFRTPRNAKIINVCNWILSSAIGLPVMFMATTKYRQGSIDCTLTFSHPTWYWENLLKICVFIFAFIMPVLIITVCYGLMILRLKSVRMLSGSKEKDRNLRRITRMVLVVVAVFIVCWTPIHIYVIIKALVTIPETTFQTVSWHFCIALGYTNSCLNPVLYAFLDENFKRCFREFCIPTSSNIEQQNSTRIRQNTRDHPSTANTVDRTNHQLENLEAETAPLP
3',5'-cyclic-AMP phosphodiesterase 4A, sequence (P27815 whole entry): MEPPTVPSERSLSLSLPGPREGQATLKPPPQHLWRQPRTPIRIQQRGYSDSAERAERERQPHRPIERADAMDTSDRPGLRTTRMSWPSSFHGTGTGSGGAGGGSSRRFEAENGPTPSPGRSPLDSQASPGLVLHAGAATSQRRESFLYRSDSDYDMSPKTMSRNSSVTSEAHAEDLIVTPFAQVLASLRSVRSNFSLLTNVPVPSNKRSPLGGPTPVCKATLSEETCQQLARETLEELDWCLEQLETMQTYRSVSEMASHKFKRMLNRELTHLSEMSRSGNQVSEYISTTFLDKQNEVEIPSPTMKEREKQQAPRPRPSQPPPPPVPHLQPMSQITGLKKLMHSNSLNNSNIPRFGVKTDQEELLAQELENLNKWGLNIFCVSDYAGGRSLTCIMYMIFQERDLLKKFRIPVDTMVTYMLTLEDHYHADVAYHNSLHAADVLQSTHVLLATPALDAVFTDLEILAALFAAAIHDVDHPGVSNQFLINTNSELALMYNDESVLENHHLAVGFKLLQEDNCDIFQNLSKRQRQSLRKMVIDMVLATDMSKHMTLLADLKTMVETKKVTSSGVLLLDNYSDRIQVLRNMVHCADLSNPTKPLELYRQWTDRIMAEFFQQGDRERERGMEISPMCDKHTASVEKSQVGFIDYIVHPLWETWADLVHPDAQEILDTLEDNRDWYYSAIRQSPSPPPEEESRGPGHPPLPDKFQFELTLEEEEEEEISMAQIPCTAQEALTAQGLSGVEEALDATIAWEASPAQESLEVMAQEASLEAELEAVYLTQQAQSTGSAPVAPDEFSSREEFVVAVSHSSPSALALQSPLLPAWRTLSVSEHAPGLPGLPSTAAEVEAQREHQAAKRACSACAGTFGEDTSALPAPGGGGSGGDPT
D(1A) dopamine receptor, sequence (P21728 whole entry): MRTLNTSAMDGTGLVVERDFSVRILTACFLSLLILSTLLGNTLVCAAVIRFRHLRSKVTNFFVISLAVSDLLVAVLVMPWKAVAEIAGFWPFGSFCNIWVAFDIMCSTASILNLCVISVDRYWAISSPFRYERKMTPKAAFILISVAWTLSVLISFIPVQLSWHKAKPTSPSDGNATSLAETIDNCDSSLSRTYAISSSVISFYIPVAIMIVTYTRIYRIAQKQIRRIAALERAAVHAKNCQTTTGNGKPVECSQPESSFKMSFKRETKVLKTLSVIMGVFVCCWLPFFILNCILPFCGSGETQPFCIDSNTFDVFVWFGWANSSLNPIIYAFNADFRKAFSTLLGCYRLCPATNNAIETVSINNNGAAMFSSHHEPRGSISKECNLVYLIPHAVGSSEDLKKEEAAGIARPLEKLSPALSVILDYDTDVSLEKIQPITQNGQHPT

In the case of `CN1CCC[C@@H]1Cc1c[nH]c2ccc(CCS(=O)(=O)c3ccccc3)cc12`, the AC50 was more than 30 µM at Thromboxane A2 receptor [1]; 26.6 µM in experiment [2]; more than 30 µM in [3]; more than 30 µM in experiment [4]; more than 30 µM at D(3) dopamine receptor; 8 µM on Mu-type opioid receptor. The AC50 on Prothrombin was more than 30 µM; in experiment [5] it was more than 30 µM; at D(1A) dopamine receptor it was 27.7 µM; on Thromboxane A2 receptor [6], more than 30 µM; in [7], more than 30 µM; in [8], more than 10 µM. In addition, the AC50 in experiment [9] is 7.51 µM; in [10] it was 0.0214 µM; in [11], 17.8 µM; at Acetylcholinesterase, more than 30 µM; on Histamine H3 receptor, 5.7 µM.
As for `O=C(Nc1cccc2c(=O)cc(-c3nnn[nH]3)oc12)c1ccc(OCCCCc2ccccc2)cc1`, the AC50 at Thromboxane A2 receptor [1] was more than 30 µM; in experiment [2], 8.24 µM; in experiment [3] it was more than 30 µM; in experiment [4], 8.21 µM; in [12], more than 30 µM; at D(3) dopamine receptor it was 4.45 µM. Moreover, the AC50 is 4.64 µM at Mu-type opioid receptor; more than 30 µM at Prothrombin; 26.7 µM in experiment [5]; 10.1 µM on D(1A) dopamine receptor; more than 30 µM on Thromboxane A2 receptor [6]; more than 30 µM in experiment [7]. Further, the AC50 in [8] is more than 30 µM; in experiment [9], more than 30 µM; in experiment [10], 4.1 µM; in experiment [11], 7.06 µM; on Acetylcholinesterase it was more than 30 µM; on Histamine H3 receptor it was more than 30 µM.
With `N[C@@H](CSSC[C@H](N)C(=O)O)C(=O)O` [CYSTINE], the AC50 (on Thromboxane A2 receptor [1]; in [2]; in experiment [3]; in experiment [4]; in experiment [12]; at D(3) dopamine receptor) was more than 30 µM throughout. In addition, the AC50 (at Mu-type opioid receptor; on Prothrombin; in [5]; on D(1A) dopamine receptor; on Thromboxane A2 receptor [6]; in experiment [7]) was more than 30 µM in each case. Moreover, the AC50 (in experiment [8]; in experiment [9]; in experiment [10]; in experiment [11]; at Acetylcholinesterase; at Histamine H3 receptor) was more than 30 µM each time.
On to `C[C@]12CCC(=O)C=C1CC[C@@H]1[C@@H]2[C@@H](O)C[C@@]2(C)[C@H]1CC[C@]2(O)C(=O)COC(=O)CCC(=O)O` [HYDROCORTISONE HEMISUCCINATE ANHYDROUS], for which the AC50 (on Thromboxane A2 receptor [1]; in experiment [2]; in experiment [3]; in [4]; in [12]; on Mu-type opioid receptor) was more than 30 µM throughout. Also, the concentration at half-maximal activity (AC50) (on Prothrombin; in experiment [5]; at D(1A) dopamine receptor; at Thromboxane A2 receptor [6]; in experiment [7]; in [8]) was more than 30 µM in each case. For the same compound, the AC50 (in [9]; in [10]; in experiment [11]; on Acetylcholinesterase; on Histamine H3 receptor; in [13]) was more than 30 µM throughout.
`CC(C)(N)C(=O)N[C@H](Cc1c[nH]c2ccccc12)C(=O)N[C@H](Cc1c[nH]c2ccccc12)NC=O` [MACIMORELIN]: the AC50 (on Thromboxane A2 receptor [1]; in experiment [2]; in [3]; in [4]; in experiment [12]; on D(3) dopamine receptor) was more than 30 µM in each case. For the same compound, the AC50 is 0.75 µM on Mu-type opioid receptor; more than 30 µM on Prothrombin; more than 30 µM in experiment [5]; more than 30 µM on D(1A) dopamine receptor; more than 30 µM on Thromboxane A2 receptor [6]; more than 30 µM in [7]. Besides, the AC50 (in [8]; in [9]; in experiment [10]; in [11]; at Acetylcholinesterase; at Histamine H3 receptor) was more than 30 µM throughout.
On to `CCCCCOc1ccc(-c2cc(-c3ccc(C(=O)N[C@H]4C[C@@H](O)[C@@H](O)NC(=O)[C@@H]5[C@@H](O)[C@@H](C)CN5C(=O)[C@H]([C@H](O)CC(N)=O)NC(=O)[C@H]([C@H](O)[C@@H](O)c5ccc(O)c(OS(=O)(=O)O)c5)NC(=O)[C@@H]5C[C@@H](O)CN5C(=O)[C@H]([C@@H](C)O)NC4=O)cc3)no2)cc1` [MICAFUNGIN] (X1-[Orn(4R-OH,5R-OH)]T[Hyp][hTyr(3S-OH,4S-OH,3'-OSO3H)][Gln(3R-OH)][Pro(3S-OH,4S-Me)]; lactam 1-C), for which the AC50 was 7.12 µM at Thromboxane A2 receptor [1]; 21.7 µM in [2]; more than 30 µM in experiment [3]; 29.5 µM in [4]; more than 30 µM in experiment [12]; more than 30 µM at D(3) dopamine receptor. Also, the AC50 at Mu-type opioid receptor was 7.68 µM; at Prothrombin, more than 30 µM; in experiment [5] it was more than 30 µM; at D(1A) dopamine receptor it was more than 30 µM; at Thromboxane A2 receptor [6], more than 30 µM; in experiment [7], more than 30 µM. The AC50 in [8] is more than 30 µM; in experiment [9], more than 30 µM; in experiment [10] it was more than 30 µM; in experiment [11], 14.6 µM; at Acetylcholinesterase, more than 30 µM; on Histamine H3 receptor it was more than 30 µM.
As for `CNC[C@H](O)c1cccc(O)c1` [PHENYLEPHRINE], the AC50 is more than 30 µM on Thromboxane A2 receptor [1]; 29.4 µM in experiment [2]; more than 30 µM in [3]; more than 30 µM in experiment [4]; more than 30 µM in experiment [12]; 4.68 µM on D(3) dopamine receptor. The AC50 at Mu-type opioid receptor was more than 30 µM; on Prothrombin, more than 30 µM; in experiment [5], more than 30 µM; at D(1A) dopamine receptor it was 18.1 µM; on Thromboxane A2 receptor [6] it was more than 30 µM; in experiment [7], more than 30 µM. Besides, the AC50 in experiment [8] is more than 30 µM; in experiment [10], 1.31 µM; in experiment [11] it was more than 30 µM; on Acetylcholinesterase it was more than 30 µM; on Histamine H3 receptor, more than 30 µM; in experiment [13], more than 30 µM.

(Values after ChEMBL document CHEMBL5291721, “A preclinical secondary pharmacology resource illuminates target-adverse drug reaction associations of marketed drugs” (Nat Commun, 2023).)
